SMILES strings stand for the structures. Where a name gives a salt, the structure may show the parent alone. Read-outs that look alike come from different tables or passages of the source. A value given as a limit tells only on which side of the number the result lay.

From US9193731B2, “Antimicrobial compounds and methods of making and using the same” (Melinta Therapeutics, Inc., priority 2009, dated 2015) come the findings set out here.

The subject of this experiment is Escherichia coli strain ATCC25922. Kind of experiment: standard microdilution assay to determine minimum inhibitory concentrations (MICs). The format is cell-based. The conditions noted are these: for MIC: Escherichia coli; for E. coli ATCC25922 MIC: Escherichia coli strain ATCC25922, microdilution. The method, boiled down: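 E. coli strain ATCC25922 tested per CLSI microdilution methodology (about 100 microliters per well) to find minimum inhibitory concentrations. Activity scored categorically at a 16 micrograms/ml threshold.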

The mark [1] stands for this setting: ATCC25922, Escherichia coli strain ATCC25922, microdilution, read-out: E. coli ATCC25922 MIC.

In the case of `NCCCNCc1ccc(-c2cn3cc(-c4ccc(S(=O)(=O)N5CC[C@@H](F)C5)cc4)[nH]c3nc2=O)cc1` [Compound 743], the MIC under setting [1] was over 16 µg/mL. The same measure, in the same setting: the result for `N=C(N)NCCCN1CC=C(c2cn3cc[nH]c3nc2=O)CC1` [Compound 572] reads over 16 µg/mL. Turning to `Cc1cc([N+](=O)[O-])nn1CCCN(C1CCNCC1)S(=O)(=O)c1ccc(-c2cc3cn(-c4ccc(CNCCCNC(=N)N)cc4)c(=O)nc3[nH]2)cc1` [Compound 998], the “E. coli ATCC25922 MIC” value was “+ (a “+” indicates that the compound has an MIC value of 16 micrograms/ml or less)”. Still for that read-out and setting: to `N=C(N)CCCOc1cccc(-c2cc3cn(-c4ccc(CNCCCNC(=N)N)cc4)c(=O)nc3[nH]2)c1` [Compound 1217] belongs “+ (a “+” indicates that the compound has an MIC value of 16 micrograms/ml or less)”. `NC1CCN(Cc2ccc(-n3cc4cc(-c5ccc(S(=O)(=O)N6CCN7CCC6CC7)c(F)c5)[nH]c4nc3=O)cc2)CC1` [Compound 264]: the minimal inhibitory concentration (MIC) under setting [1] is over 16 µg/mL.

For the compound `COc1cc(-n2cc3cc(-c4cccc(OCCCN)c4)[nH]c3nc2=O)ccc1CNCCCNC(=N)N` [Compound 1273], the “E. coli ATCC25922 MIC” value is “+ (a “+” indicates that the compound has an MIC value of 16 micrograms/ml or less)”. Turning to `N=C(N)NCCCNCc1ccc(-c2cn3cc(-c4ccc(C(=O)NCCCN5CCNCC5)cc4)[nH]c3nc2=O)cc1` [Compound 722], the MIC under setting [1] is under 16 µg/mL. For the compound `CNCc1ccc(-n2cc3cc(-c4ccc(S(=O)(=O)N(Cc5ccc(Cl)c(Cl)c5)C5CCNCC5)cc4)[nH]c3nc2=O)cc1` [Compound 933], the “E. coli ATCC25922 MIC” value is reported as “− (a “−” indicates that the compound has an MIC value greater than 16 micrograms/ml)”. On the same count and under the same terms, to `N=C(N)NCCCNCc1ccc(-n2cc3cc(-c4cc(CCCN)cc(OC(F)(F)F)c4)[nH]c3nc2=O)cc1` [Compound 2058a] belongs “+ (a “+” indicates that the compound has an MIC value of 16 micrograms/ml or less)”. For the compound `NCCCNCc1ccc(-c2cn3cc(-c4ccc(C(=O)NN5CCOCC5)cc4)[nH]c3nc2=O)cc1` [Compound 723], the minimum inhibitory concentration (MIC) under setting [1] is over 16 µg/mL. For the compound `N=C(N)NCCCNCc1ccc(-n2cc3cc(-c4ccc(S(=O)(=O)N(Cc5ccc6nonc6c5)C5CCNCC5)cc4)[nH]c3nc2=O)cc1` [Compound 769], the “E. coli ATCC25922 MIC” value is recorded as “+ (a “+” indicates that the compound has an MIC value of 16 micrograms/ml or less)”. For the compound `COc1ccccc1-c1nn2cc(-c3ccc(CNCCCN)cc3)c(=O)nc2[nH]1` [Compound 734], the minimum inhibitory concentration (MIC) under setting [1] is over 16 µg/mL. The same measure, in the same setting: to `N=C(N)NCCCNCc1ccc(C2N=c3cc(-c4cccc(O)c4)[nH]c3=NC2=O)cc1` (centres unmarked) [Compound 1334] belongs under 16 µg/mL; to `NCCCN(CCCN)Cc1ccc(-n2cc3cc(-c4ccc(S(=O)(=O)NC5CCNCC5)cc4F)[nH]c3nc2=O)cc1` [Compound 200], under 16 µg/mL. For `O=c1nc2[nH]c(-c3ccc(S(=O)(=O)NC4CCNCC4)cc3F)cc2cn1-c1ccc(CNCCCF)c(F)c1` [Compound 279], under setting [1], the MIC was over 16 µg/mL. Turning to `NCCCc1cccc(-c2cc3cn(-c4ccc(C(N)C(F)(F)F)cc4)c(=O)nc3[nH]2)c1` (centres unmarked) [Compound 2080a], under setting [1], the minimum inhibitory concentration (MIC) was over 16 µg/mL.

As for `N=C(N)NCCCNCc1ccc(-n2cc3cc(-c4ccc(S(=O)(=O)N(CCCN5CCS(=O)(=O)CC5)C5CCNCC5)cc4)[nH]c3nc2=O)cc1` [Compound 855], the “E. coli ATCC25922 MIC” value is “+ (a “+” indicates that the compound has an MIC value of 16 micrograms/ml or less)”. Consider `N=C(N)NCCCNCc1ccc(-n2cc3cc(-c4cc(C(=O)N5CCN(c6ccc(F)cc6)CC5)cc(N5CCNCC5)c4)[nH]c3nc2=O)cc1` [Compound 755], for which, under setting [1], the MIC was under 16 µg/mL. As for `CNCc1ccc(-n2cc3cc(-c4ccc(S(=O)(=O)N(Cc5ccc6nonc6c5)C5CCNCC5)cc4)[nH]c3nc2=O)cc1` [Compound 962], the “E. coli ATCC25922 MIC” value is listed as “− (a “−” indicates that the compound has an MIC value greater than 16 micrograms/ml)”.

As for `N=C(N)NCCCNCc1ccc(-n2cc3cc(-c4cc(OCC(F)CN)cc(N5CCOCC5)c4)[nH]c3nc2=O)cc1` (centres unmarked) [Compound 2013a], the “E. coli ATCC25922 MIC” value is “+ (a “+” indicates that the compound has an MIC value of 16 micrograms/ml or less)”. As for `N=C(N)NCCCNCCCCCn1cc2cc(-c3ccc(S(=O)(=O)NC4CCNCC4)cc3)[nH]c2nc1=O` [Compound 924], the “E. coli ATCC25922 MIC” value is listed as “+ (a “+” indicates that the compound has an MIC value of 16 micrograms/ml or less)”.

As for `N=C(N)NCCCNCc1ccc(-c2cn3c(nc2=O)[nH]c2ccccc23)cc1` [Compound 602, N-{3-[4-(2-Oxo-2,10-dihydro-benzo[4,5]imidazo[1,2-a]pyrimidin-3-yl)-benzylamino]-propyl}-guanidine hydrochloride salt], the MIC (ATCC25922, read-out: E. coli ATCC25922 MIC) is under 16 µg/mL. For `CN(Cc1cccc(F)c1)C(=O)c1cc(-c2cc3cn(-c4ccc(CNCCCNC(=N)N)cc4)c(=O)nc3[nH]2)cc(N2CCNCC2)c1` [Compound 957], the “E. coli ATCC25922 MIC” value was “+ (a “+” indicates that the compound has an MIC value of 16 micrograms/ml or less)”. Turning to `NCCCN(CCCN)Cc1ccc(-n2cc3cc(-c4ccc(S(=O)(=O)NC5CCNCC5)cc4)[nH]c3nc2=O)cc1` [Compound 198], under setting [1], the minimum inhibitory concentration (MIC) was under 16 µg/mL. The same measure, in the same setting: the result for `NCCCN(CCCN)Cc1ccc(-n2cc3cc(-c4ccccc4C(F)(F)F)[nH]c3nc2=O)cc1F` [Compound 318] reads over 16 µg/mL; that for `N=C(N)NCCCNCc1ccc(-c2cn3cc(-c4ccc(C(=O)N5CCOCC5)cc4)[nH]c3nc2=O)cc1` [Compound 654], over 16 µg/mL. As for `Cc1cc(-n2cc3cc(-c4cccc(OCCCN)c4)[nH]c3nc2=O)ccc1CNCCCNC(=N)N` [Compound 1280], the “E. coli ATCC25922 MIC” value was “+ (a “+” indicates that the compound has an MIC value of 16 micrograms/ml or less)”. For `CS(=O)(=O)N1CCN(C(=O)c2ccc(-c3cn4cc(-c5ccc(CNCCCNC(=N)N)cc5)c(=O)nc4[nH]3)cc2)CC1` [Compound 716], the minimal inhibitory concentration (MIC) under setting [1] is over 16 µg/mL.

Regarding `CN(C)C(=O)c1cc(-c2cc3cn(-c4ccc(CNCCCNC(=N)N)cc4)c(=O)nc3[nH]2)cc(N2CCNCC2)c1` [Compound 797], the minimum inhibitory concentration (MIC) under setting [1] was under 16 µg/mL.

For the compound `O=C1CC[C@@H](COc2cccc(-n3cc4cc(-c5ccc(S(=O)(=O)NC6CCNCC6)cc5)[nH]c4nc3=O)c2)N1` [Compound 1223], the minimum inhibitory concentration (MIC) under setting [1] is over 16 µg/mL. On the same count and under the same terms, to `N=C(N)CCCN1CCCC(c2cc3cn(-c4ccc(CNCCCNC(=N)N)cc4)c(=O)nc3[nH]2)C1` (centres unmarked) [Compound 2020a] belongs under 16 µg/mL. Same read-out and setting: to `N=C(N)NCCCNCc1ccc(-c2cn3cc(C(=O)Nc4ccc(F)cc4)[nH]c3nc2=O)cc1` [Compound 965] belongs over 16 µg/mL.
